Assay results published in US8106052B2, “Luminescence-based methods and probes for measuring cytochrome P450 activity” (Promega Corporation, priority 2002, dated 2012).
Where two headings read alike, the source gives them in different places.

Legend:
[1] = test system: pooled human liver microsomes; assay: Pooled human liver microsomes in two-step luminescent CYP450 reaction; conditions: for Effect on activity against Luc BE: substrate Luc BE, ketoconazole 100 micromolar; for CYP450 activity detected with the substrate compared to Sf9 cell membranes: pooled human liver microsomes, 60 minutes at 37° C.
Procedure: FIG. 8. Pooled human liver microsomes in two-step luminescent CYP450 reactions. D-luciferin derivatives were incubated in a CYP450 reaction mix with pooled human liver microsomes for 60 minutes at 37° C. before combining with a luciferase reaction mixture. For controls liver microsomes were replaced with control (no CYP450) Sf9 cell membranes. Luminescence was read within 12 minutes of combining the reactions on a Berthold Orion luminometer. […] Values labeled “nt” are vehicle controls.
(§1) In this Example, a procedure for a two-step CYP450/luciferase assay is provided. Luciferin derivatives were evaluated as P450 substrates and luciferase pro-substrates using this procedure. 20 microliter CYP450 reactions were prepared at pH 7.4 in an amount of KPO4 buffer that is optimal for a given CYP450 isoform (100 mM for CYP1A1, CYP1A2, CYP2B6, CYP2D6 and CYP2E1; 50 mM for CYP2C8 and CYP2C19; 25 mM for 2C9 and for pooled human liver microsomes; 200 mM for CYP3A4). For CYP2A6 100 mM Tris at pH 7.5 was substituted for KPO4. […] Reactions were initiated by addition of 0.4 pmoles recombinant human CYP450 co-expressed with CYP450 reductase in Sf9 cell microsomal membranes or 4 microgram pooled human liver microsomes and incubation at 37° C. After an initial incubation period at 37° C. 20 microliter CYP450 reactions were mixed with an 80 microliter luciferase reaction mix. […] Assays were also performed using 50 microliter CYP450 and luciferase reaction volumes (e.g., FIG. 3, panel B, table 3). Light output was measured immediately in a Turner Reporter, Turner 20/20 or Berthold Orion luminometer. Because the calibration of instruments from different manufacturers varies the quantitation of light output is instrument-specific and direct comparisons between instruments cannot be made.

CYP1A2 = target: T1, CYP1A2 (Homo sapiens, UniProt P05177); assay: Two-step CYP450/luciferase reaction, luciferin derivative evaluation as substrate; conditions: CYP450 incubation 60 minutes at 37° C., then luciferase
T1 sequence (P05177 1-516): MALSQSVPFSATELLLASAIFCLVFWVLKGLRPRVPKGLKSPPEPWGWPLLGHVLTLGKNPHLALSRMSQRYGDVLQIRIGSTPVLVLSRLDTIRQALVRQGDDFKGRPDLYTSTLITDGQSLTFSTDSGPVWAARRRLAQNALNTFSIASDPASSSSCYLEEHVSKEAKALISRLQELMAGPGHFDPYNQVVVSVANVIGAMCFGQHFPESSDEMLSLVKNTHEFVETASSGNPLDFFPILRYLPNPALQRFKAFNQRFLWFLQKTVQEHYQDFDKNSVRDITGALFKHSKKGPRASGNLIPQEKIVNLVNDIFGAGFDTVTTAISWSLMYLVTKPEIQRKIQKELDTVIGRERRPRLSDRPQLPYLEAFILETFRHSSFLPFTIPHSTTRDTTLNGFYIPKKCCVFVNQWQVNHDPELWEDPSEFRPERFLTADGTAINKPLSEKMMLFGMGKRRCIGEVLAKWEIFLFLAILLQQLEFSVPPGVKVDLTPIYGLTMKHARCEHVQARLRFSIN
Procedure: as §1
(§2) O-dealkylation and hydroxylation are common CYP450 catalyzed xenobiotic transformations (9). […] The CYP450 activities tested are contained in microsome fractions from insect cells that over-express a single recombinant human CYP450 isoform in combination with NADPH CYP450 reductase. It was reasoned that if CYP450s dealkylated or hydroxylated the luciferin derivatives at the 6′ position, authentic luciferin would be generated that could be detected enzymatically in a light generating firefly luciferase reaction as described by the equation in FIG. 1.
(§3) The panel included CYP1A1, CYP1A2, CYP2A6, CYP2B6, CYP2C8, CYP2C9, CYP2C19, CYP2D6, CYP2E1 and CYP3A4. After an initial incubation with CYP450, luciferase and its requisite cofactors were added and light output was monitored (FIGS. 3 and 9).

CYP2C9 [2] = target: T2, CYP2C9 (Homo sapiens, UniProt P11712); assay: as above; conditions: for Light output over controls with CYP2C9: CYP450 incubation 60 minutes at 37° C., then luciferase
Procedure: as §1, §2, §3
Target sequence in this assay (P11712 whole entry): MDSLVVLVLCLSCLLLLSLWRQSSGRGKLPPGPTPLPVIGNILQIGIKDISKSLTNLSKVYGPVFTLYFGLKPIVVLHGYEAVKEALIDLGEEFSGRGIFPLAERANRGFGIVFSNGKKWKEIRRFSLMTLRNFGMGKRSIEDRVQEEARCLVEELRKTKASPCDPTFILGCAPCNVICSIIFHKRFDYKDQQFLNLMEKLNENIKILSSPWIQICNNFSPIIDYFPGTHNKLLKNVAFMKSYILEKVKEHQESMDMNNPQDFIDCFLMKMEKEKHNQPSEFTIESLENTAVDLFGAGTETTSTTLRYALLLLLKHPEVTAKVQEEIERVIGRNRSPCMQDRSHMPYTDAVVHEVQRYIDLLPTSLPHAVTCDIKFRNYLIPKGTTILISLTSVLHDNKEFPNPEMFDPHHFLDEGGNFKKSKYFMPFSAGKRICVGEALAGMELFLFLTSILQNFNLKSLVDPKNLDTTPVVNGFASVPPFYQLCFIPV

CYP2C9 [3] = target: T2, CYP2C9; assay: CYP450-catalyzed conversion of luciferin derivatives to luciferin (HPLC); type: biochemical; conditions: 100 micromolar, 37 C, HPLC with fluorescence detection
Target sequence in this assay (P11712 whole entry, species assumed): as the sequence (P11712 whole entry) above

CYP2C9 [4] = target: T2, CYP2C9; assay: One-step CYP450/luciferase reaction; type: biochemical; set-up: purchased GenTest (Woburn, Mass.); host or cells: Sf9 insect cells; conditions: 37° C.
Procedure: (§4) Luciferin derivatives were evaluated as P450 substrates and luciferase pro-substrates using this procedure.
Target sequence in this assay (P11712 whole entry): as above

CYP2C8 = target: T3, CYP2C8 (Homo sapiens, UniProt P10632); conditions: CYP450 incubation 60 minutes at 37° C., then luciferase
T3 sequence (P10632 1-490): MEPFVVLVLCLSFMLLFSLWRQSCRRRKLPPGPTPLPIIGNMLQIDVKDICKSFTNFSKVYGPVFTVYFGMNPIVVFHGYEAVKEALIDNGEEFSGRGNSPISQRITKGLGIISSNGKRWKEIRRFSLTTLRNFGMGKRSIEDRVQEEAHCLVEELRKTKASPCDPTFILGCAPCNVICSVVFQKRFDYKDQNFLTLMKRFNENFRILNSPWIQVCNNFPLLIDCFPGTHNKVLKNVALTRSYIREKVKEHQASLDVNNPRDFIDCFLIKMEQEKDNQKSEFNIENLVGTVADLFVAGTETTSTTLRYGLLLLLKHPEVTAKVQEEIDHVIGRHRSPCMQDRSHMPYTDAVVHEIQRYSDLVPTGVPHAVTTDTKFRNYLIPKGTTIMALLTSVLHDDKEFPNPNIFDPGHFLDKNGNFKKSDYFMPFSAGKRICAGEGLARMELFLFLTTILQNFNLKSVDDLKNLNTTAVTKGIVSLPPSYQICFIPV
Procedure: as §1, §2, §3

CYP3A4 [5] = target: T4, CYP3A4 (Homo sapiens, UniProt P08684)
T4 sequence (P08684 whole entry): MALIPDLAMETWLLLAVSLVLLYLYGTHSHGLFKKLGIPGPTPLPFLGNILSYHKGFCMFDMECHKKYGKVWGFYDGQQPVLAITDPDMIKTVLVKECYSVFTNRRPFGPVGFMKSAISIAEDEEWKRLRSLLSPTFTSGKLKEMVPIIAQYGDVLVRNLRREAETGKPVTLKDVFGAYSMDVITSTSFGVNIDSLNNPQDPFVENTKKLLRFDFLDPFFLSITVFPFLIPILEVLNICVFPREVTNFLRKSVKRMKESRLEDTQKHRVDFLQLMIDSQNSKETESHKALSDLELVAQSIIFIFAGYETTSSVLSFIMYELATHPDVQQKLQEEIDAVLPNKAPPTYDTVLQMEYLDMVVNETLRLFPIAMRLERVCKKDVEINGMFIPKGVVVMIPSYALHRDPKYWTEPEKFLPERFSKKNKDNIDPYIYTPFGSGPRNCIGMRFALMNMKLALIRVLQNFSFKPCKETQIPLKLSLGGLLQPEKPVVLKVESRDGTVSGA
Procedure: as §1, §2, §3

CYP3A4 [6] = target: T4, CYP3A4; assay: One-step CYP450/luciferase reaction; conditions: 37° C.
Procedure: as §4

CYP1A1 [7] = target: T5, CYP1A1 (Homo sapiens, UniProt P04798); conditions: CYP450 incubation 60 minutes at 37° C., then luciferase
T5 sequence (P04798 1-512): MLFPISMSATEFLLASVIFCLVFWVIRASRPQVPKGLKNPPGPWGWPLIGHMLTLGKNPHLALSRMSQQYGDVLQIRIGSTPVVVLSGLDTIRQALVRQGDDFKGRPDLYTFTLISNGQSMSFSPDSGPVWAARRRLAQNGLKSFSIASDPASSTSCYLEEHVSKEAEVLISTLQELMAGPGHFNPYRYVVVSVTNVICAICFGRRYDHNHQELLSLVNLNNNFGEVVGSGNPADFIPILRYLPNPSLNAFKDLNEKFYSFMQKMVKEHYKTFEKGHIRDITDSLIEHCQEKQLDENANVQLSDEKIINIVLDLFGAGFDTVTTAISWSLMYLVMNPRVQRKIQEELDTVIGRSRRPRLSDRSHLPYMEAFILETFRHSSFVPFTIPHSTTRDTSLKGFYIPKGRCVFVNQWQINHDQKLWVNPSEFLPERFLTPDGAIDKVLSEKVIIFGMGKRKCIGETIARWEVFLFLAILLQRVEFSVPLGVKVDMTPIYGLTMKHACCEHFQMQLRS
Procedure: as §1, §2, §3

CYP1A1 [8] = target: T5, CYP1A1; assay: CYP450-catalyzed conversion of luciferin derivatives to luciferin (HPLC); conditions: 100 micromolar, 37 C, HPLC with fluorescence detection
Procedure: At various time intervals, the reactions were stopped by the addition of Tergitol to 0.1% (v/v) and flash freezing in liquid nitrogen. 95 microliter aliquots of each reaction mixture were subjected to fractionation by HPLC. […] Separation was achieved on a 5 micron Adsorbosphere HS C18 column (Alltech Associates) with a solvent gradient of 0.05M KH2PO4/pH 6 (solvent A) and 80:20 acetonitrile/water (solvent B). The gradient conditions used were 15% B to 95% B over 10 min.

[9] = alpha-naphthoflavone 10 micromolar
[10] = two-step, 37° C., up to 60 minutes

## O=c1cc(-c2ccccc2)oc2c1ccc1ccccc12 [Alpha-Naphpthoflavone, alpha-naphthoflavone]
[1]; [9]
  Effect on activity against Luc BE: slight stimulation
[1]; substrates H-Luc, Luc ME, Luc EE, Luc BE, alpha-naphthoflavone 10 micromolar
  Inhibition of microsomal light output: lack of inhibition

## O=C(O)C1CSC(c2nc3ccccc3s2)=N1 (stereo not drawn) [H-Luc, 6′-Deoxyluciferin]
CYP1A2
  Light output over controls with CYP1A2: increased light output over controls
CYP2C9 [2]
  Light output over controls with CYP2C9: increased light output over controls
CYP2C9 [2]; [10]
  Time-dependence of light output on CYP2C9/substrate incubation: increased in a linear fashion for up to 60 minutes
CYP2C9 [3]
  Conversion to luciferin by CYP2C9: confirmed
[1]
  CYP450 activity detected with the substrate compared to Sf9 cell membranes: significant amounts of CYP450 activity was detected
CYP2C9 [4]
  Light output over time, one-step with CYP2C9: increasing to a maximum by about 30 minutes and declining thereafter

## CC(=O)N1CCN(c2ccc(OCC3COC(Cn4ccnc4)(c4ccc(Cl)cc4Cl)O3)cc2)CC1 (stereo not drawn) [Ketoconazole, ketoconazole]
[1]; substrate H-Luc, sulfaphenazole and ketoconazole 100 micromolar
  Inhibition of light output with H-Luc: Partial inhibition
[1]; [9]
  Effect on activity against Luc BE: Inhibition

## O=C(O)[C@H]1CSC(c2nc3ccc(OCc4ccccc4)cc3s2)=N1 [Luc BE, Luciferin 6′-benzyl ether]
CYP2C9 [2]
  Light output over controls with CYP2C9: increased significantly
CYP2C8
  Light output over controls with CYP2C8: increased significantly
CYP3A4 [5]; CYP450 incubation 60 minutes at 37° C., then luciferase
  Light output over controls with CYP3A4: increased significantly
CYP3A4 [5]; [10]
  Time-dependence of light output on CYP3A4/substrate incubation: increased in a linear fashion for up to 60 minutes
CYP3A4 [6]
  Difference in light output to -CYP450 control, one-step with CYP3A4: modest
[1]
  CYP450 activity detected with the substrate compared to Sf9 cell membranes: significant amounts of CYP450 activity was detected

## O=C(O)[C@H]1CSC(c2nc3ccc(OCCCl)cc3s2)=N1 [Luc CEE, Luciferin 6′-(2-chloroethyl)ether]
CYP1A2
  Light output over controls with CYP1A2: increased significantly
CYP2C9 [2]
  Light output over controls with CYP2C9: increased significantly
CYP1A1 [7]
  Light output over controls with CYP1A1: increased significantly
CYP2C8
  Light output over controls with CYP2C8: increased significantly
CYP1A1 [8]
  Conversion to luciferin by CYP1A1: confirmed

## CCOc1ccc2nc(C3=N[C@@H](C(=O)O)CS3)sc2c1 [Luc EE, luciferin 6′ ethyl ether]
CYP1A2
  Light output over controls with CYP1A2: increased significantly
CYP2C9 [2]
  Light output over controls with CYP2C9: increased significantly
CYP1A1 [7]
  Light output over controls with CYP1A1: increased significantly
CYP2C8
  Light output over controls with CYP2C8: increased significantly
[1]
  CYP450 activity detected with the substrate compared to Sf9 cell membranes: significant amounts of CYP450 activity was detected

## Nc1ccc(S(=O)(=O)Nc2ccnn2-c2ccccc2)cc1 [Sulfaphenazole, sulfaphenazole]
[1]
  Inhibition of light output with H-Luc: near complete inhibition
